According to paper PMC7265341, “Quantifying CDK inhibitor selectivity in live cells” (Nature Communications, 2020):
Like-named read-outs stand apart in the source and are kept apart here.

Columns and labels:
CDK15/Cyclin Y = CDK15/Cyclin Y (Homo sapiens, UniProt Q96Q40); experiment: NanoBRET live-cell target engagement, NanoLuc-CDK15/Cyclin Y in HEK-293; format: binding; conditions: CDK15/Y; for IC50: read-out: IC50; for inhibition at 10 µM: read-out: Inhibition at 10µM (%)
CDK13/Cyclin K = CDK13/Cyclin K (Homo sapiens, UniProt Q14004); experiment: NanoBRET live-cell target engagement, CDK13-NanoLuc/Cyclin K in HEK-293; format: binding; conditions: CDK13/K, read-out: Inhibition at 10µM (%)
CDK19/Cyclin C = CDK19/Cyclin C (Homo sapiens, UniProt Q9BWU1); experiment: NanoBRET live-cell target engagement, NanoLuc-CDK19/Cyclin C in HEK-293; conditions: read-out: Inhibition at 10µM (%), CDK19/C
CDK4/Cyclin D1 = CDK4/Cyclin D1 (Homo sapiens, UniProt P11802); experiment: NanoBRET live-cell target engagement, NanoLuc-CDK4/Cyclin D1 in HEK-293; format: binding; conditions: CDK4/D1, read-out: Inhibition at 10µM (%)
Chain of CDK4/Cyclin D1 (P11802 whole entry): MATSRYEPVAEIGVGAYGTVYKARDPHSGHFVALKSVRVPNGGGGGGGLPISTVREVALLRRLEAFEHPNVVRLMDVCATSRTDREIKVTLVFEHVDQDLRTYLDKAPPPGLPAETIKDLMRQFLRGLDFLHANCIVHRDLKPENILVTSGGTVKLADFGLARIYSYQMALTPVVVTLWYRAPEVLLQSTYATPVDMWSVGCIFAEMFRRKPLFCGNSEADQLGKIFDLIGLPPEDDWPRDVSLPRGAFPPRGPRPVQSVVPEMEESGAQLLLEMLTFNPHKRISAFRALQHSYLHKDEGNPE
Chain of CDK4/Cyclin D1 (P24385 whole entry partner): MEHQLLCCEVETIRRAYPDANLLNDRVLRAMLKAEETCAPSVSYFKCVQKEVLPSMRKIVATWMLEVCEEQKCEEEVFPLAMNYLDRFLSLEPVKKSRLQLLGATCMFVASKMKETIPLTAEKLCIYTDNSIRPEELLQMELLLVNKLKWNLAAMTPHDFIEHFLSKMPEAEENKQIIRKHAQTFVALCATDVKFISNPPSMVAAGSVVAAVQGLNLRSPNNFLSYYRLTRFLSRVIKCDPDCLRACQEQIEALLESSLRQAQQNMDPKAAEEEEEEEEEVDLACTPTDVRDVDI

CDK1/Cyclin E1 = CDK1/Cyclin E1 (Homo sapiens, UniProt P06493); experiment: NanoBRET live-cell target engagement, CDK1-NanoLuc/Cyclin E1 in HEK-293; format: binding; conditions: CDK1/E1, read-out: Inhibition at 10µM (%)
CDK9/Cyclin K = CDK9/Cyclin K (Homo sapiens, UniProt P50750); experiment: NanoBRET live-cell target engagement, NanoLuc-CDK9/Cyclin K in HEK-293; format: binding; conditions: CDK9/K; for inhibition at 10 µM: read-out: Inhibition at 10µM (%)
Chain of CDK9/Cyclin K (P50750 whole entry): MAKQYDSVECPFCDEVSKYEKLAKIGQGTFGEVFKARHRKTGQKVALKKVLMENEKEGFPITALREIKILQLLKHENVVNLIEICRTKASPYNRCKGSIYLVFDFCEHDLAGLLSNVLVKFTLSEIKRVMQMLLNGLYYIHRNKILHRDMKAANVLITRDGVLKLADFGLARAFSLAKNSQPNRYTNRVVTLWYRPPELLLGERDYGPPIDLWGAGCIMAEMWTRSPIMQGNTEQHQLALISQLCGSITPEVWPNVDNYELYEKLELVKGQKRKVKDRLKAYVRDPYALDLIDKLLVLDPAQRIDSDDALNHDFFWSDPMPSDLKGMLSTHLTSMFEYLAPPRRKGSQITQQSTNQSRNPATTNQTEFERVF
Chain of CDK9/Cyclin K (O75909 whole entry partner): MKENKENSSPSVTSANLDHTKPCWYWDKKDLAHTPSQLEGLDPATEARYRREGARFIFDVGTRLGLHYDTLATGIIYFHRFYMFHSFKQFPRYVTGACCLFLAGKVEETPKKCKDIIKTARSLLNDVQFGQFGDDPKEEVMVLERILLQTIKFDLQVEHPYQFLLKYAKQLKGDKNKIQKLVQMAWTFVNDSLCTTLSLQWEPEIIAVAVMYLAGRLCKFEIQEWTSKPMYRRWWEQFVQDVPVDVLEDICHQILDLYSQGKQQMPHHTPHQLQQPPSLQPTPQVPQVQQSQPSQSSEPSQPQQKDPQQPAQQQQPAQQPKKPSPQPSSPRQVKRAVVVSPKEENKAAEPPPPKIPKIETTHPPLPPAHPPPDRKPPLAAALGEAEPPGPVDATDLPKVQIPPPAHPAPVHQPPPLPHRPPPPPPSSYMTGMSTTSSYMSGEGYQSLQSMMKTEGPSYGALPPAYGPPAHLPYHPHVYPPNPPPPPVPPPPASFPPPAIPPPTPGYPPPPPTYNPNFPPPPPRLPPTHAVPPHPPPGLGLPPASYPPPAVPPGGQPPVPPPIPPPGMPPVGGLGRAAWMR

CDK17/Cyclin Y = CDK17/Cyclin Y (Homo sapiens, UniProt Q00537); experiment: NanoBRET live-cell target engagement, CDK17-NanoLuc/Cyclin Y in HEK-293; format: binding; conditions: CDK17/Y; for IC50: read-out: IC50; for inhibition at 10 µM: read-out: Inhibition at 10µM (%)
Chain of CDK17/Cyclin Y (Q00537 whole entry): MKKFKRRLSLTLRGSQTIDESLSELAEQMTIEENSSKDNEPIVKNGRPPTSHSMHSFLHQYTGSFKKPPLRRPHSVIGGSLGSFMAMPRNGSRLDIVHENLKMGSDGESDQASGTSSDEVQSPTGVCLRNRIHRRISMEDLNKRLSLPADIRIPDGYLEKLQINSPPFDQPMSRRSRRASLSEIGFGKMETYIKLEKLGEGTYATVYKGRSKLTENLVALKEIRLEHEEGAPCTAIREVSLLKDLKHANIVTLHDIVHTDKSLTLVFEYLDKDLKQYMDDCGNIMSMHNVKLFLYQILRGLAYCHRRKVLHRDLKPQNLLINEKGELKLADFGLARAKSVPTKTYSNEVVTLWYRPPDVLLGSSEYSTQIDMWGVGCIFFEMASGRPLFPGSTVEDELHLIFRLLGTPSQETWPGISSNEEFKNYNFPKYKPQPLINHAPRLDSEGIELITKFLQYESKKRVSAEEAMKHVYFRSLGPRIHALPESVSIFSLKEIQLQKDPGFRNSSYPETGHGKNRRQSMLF
Chain of CDK17/Cyclin Y (Q8ND76 whole entry partner): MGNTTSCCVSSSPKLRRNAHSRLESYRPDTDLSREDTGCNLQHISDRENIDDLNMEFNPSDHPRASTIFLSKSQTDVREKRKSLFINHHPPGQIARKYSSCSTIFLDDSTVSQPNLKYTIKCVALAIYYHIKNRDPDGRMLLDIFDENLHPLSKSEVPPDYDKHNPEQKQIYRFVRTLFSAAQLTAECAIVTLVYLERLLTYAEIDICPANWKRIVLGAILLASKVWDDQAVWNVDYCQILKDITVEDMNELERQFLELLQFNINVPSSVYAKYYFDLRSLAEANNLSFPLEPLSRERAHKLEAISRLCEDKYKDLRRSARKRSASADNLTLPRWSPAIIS

CDK11B/Cyclin L2 = CDK11B/Cyclin L2 (Homo sapiens, UniProt P21127); experiment: NanoBRET live-cell target engagement, CDK11B-NanoLuc/Cyclin L2 in HEK-293; format: binding; conditions: CDK11b/L2; for IC50: read-out: IC50; for inhibition at 10 µM: read-out: Inhibition at 10µM (%)
CDK16/Cyclin Y = CDK16/Cyclin Y (Homo sapiens, UniProt Q00536); experiment: NanoBRET live-cell target engagement, CDK16-NanoLuc/Cyclin Y in HEK-293; format: binding; conditions: CDK16/Y; for IC50: read-out: IC50; for inhibition at 10 µM: read-out: Inhibition at 10µM (%)
CDK11A/Cyclin L2 = target: T1, CDK11A/Cyclin L2 (Homo sapiens, UniProt Q9UQ88); experiment: NanoBRET live-cell target engagement, CDK11A-NanoLuc/Cyclin L2 in HEK-293; format: binding; conditions: CDK11a/L2; for IC50: read-out: IC50; for inhibition at 10 µM: read-out: Inhibition at 10µM (%)
T1 sequence (Q9UQ88 1-783): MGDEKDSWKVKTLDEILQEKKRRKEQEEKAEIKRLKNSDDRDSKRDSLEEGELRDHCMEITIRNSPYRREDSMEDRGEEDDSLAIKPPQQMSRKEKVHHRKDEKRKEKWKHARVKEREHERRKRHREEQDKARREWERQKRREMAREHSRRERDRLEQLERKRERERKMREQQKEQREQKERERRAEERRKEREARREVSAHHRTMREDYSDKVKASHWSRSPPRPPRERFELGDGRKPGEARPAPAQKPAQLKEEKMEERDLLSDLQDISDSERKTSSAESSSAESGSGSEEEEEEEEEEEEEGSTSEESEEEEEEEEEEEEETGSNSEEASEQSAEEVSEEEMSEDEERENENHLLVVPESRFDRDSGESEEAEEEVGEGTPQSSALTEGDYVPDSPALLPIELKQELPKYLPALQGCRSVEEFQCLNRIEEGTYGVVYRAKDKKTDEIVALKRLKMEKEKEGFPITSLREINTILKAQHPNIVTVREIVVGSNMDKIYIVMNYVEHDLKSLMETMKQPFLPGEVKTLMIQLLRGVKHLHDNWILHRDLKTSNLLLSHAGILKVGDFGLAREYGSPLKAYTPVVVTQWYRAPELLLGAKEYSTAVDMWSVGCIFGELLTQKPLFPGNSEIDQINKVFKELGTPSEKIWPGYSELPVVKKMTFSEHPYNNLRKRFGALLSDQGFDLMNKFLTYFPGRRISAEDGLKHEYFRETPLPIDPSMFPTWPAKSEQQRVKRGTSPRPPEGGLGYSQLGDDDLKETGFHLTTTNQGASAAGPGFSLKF

CDK5/CDK5R1 = CDK5/CDK5R1 (Homo sapiens, UniProt Q00535); experiment: NanoBRET live-cell target engagement, CDK5-NanoLuc/CDK5R1 in HEK-293; format: binding; conditions: CDK5/CDK5R1, read-out: Inhibition at 10µM (%)
Chain of CDK5/CDK5R1 (Q00535 whole entry): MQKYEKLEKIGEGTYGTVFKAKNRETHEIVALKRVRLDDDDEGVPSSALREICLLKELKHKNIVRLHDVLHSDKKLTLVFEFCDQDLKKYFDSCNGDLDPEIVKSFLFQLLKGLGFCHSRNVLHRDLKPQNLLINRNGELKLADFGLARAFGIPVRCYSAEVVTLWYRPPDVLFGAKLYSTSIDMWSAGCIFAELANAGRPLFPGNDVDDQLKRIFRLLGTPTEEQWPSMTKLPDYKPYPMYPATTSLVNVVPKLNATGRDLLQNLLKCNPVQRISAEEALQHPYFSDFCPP
Chain of CDK5/CDK5R1 (Q15078 whole entry partner): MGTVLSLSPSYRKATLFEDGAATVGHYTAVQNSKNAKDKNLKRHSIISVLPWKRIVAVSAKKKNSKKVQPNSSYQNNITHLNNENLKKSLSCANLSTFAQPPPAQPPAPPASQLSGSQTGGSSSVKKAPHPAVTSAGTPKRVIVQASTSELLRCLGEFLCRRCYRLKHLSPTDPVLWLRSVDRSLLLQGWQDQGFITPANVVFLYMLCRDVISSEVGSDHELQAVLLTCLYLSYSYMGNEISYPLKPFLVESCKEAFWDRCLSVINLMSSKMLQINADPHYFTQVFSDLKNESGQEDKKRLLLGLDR

CDK18/Cyclin Y = CDK18/Cyclin Y (Homo sapiens, UniProt Q07002); experiment: NanoBRET live-cell target engagement, CDK18-NanoLuc/Cyclin Y in HEK-293; format: binding; conditions: for IC50: read-out: IC50
CDK10/Cyclin L2 = CDK10/Cyclin L2 (Homo sapiens, UniProt Q15131); experiment: NanoBRET live-cell target engagement, CDK10-NanoLuc/Cyclin L2 in HEK-293; conditions: for IC50: IC50 (nM), CDK10/L2; for inhibition at 10 µM: read-out: Inhibition at 10µM (%), CDK10/L2
CDK6/Cyclin D1 = CDK6/Cyclin D1 (Homo sapiens, UniProt Q00534); experiment: NanoBRET live-cell target engagement, NanoLuc-CDK6/Cyclin D1 in HEK-293; format: binding; conditions: CDK6/D1, read-out: Inhibition at 10µM (%)
Chain of CDK6/Cyclin D1 (Q00534 whole entry): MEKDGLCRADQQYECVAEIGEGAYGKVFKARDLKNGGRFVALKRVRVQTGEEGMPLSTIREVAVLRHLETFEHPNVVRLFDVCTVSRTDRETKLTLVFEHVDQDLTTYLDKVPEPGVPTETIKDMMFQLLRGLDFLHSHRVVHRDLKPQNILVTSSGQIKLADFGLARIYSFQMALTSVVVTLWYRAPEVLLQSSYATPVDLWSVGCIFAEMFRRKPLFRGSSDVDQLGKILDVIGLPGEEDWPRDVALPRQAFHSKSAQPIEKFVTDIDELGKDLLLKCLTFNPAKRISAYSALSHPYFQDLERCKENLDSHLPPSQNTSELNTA
Chain of CDK6/Cyclin D1 (P24385 whole entry partner): as the sequence (P24385 whole entry partner) above

CDK20/Cyclin H = CDK20/Cyclin H (Homo sapiens, UniProt Q8IZL9); experiment: NanoBRET live-cell target engagement, NanoLuc-CDK20/Cyclin H in HEK-293; format: binding; conditions: CDK20/H, read-out: Inhibition at 10µM (%)
CDK12/Cyclin K = CDK12/Cyclin K (Homo sapiens, UniProt Q9NYV4); experiment: NanoBRET live-cell target engagement, CDK12-NanoLuc/Cyclin K in HEK-293; format: binding; conditions: read-out: Inhibition at 10µM (%), CDK12/K
Chain of CDK12/Cyclin K (Q9NYV4 1-1481 isoform Q9NYV4-2): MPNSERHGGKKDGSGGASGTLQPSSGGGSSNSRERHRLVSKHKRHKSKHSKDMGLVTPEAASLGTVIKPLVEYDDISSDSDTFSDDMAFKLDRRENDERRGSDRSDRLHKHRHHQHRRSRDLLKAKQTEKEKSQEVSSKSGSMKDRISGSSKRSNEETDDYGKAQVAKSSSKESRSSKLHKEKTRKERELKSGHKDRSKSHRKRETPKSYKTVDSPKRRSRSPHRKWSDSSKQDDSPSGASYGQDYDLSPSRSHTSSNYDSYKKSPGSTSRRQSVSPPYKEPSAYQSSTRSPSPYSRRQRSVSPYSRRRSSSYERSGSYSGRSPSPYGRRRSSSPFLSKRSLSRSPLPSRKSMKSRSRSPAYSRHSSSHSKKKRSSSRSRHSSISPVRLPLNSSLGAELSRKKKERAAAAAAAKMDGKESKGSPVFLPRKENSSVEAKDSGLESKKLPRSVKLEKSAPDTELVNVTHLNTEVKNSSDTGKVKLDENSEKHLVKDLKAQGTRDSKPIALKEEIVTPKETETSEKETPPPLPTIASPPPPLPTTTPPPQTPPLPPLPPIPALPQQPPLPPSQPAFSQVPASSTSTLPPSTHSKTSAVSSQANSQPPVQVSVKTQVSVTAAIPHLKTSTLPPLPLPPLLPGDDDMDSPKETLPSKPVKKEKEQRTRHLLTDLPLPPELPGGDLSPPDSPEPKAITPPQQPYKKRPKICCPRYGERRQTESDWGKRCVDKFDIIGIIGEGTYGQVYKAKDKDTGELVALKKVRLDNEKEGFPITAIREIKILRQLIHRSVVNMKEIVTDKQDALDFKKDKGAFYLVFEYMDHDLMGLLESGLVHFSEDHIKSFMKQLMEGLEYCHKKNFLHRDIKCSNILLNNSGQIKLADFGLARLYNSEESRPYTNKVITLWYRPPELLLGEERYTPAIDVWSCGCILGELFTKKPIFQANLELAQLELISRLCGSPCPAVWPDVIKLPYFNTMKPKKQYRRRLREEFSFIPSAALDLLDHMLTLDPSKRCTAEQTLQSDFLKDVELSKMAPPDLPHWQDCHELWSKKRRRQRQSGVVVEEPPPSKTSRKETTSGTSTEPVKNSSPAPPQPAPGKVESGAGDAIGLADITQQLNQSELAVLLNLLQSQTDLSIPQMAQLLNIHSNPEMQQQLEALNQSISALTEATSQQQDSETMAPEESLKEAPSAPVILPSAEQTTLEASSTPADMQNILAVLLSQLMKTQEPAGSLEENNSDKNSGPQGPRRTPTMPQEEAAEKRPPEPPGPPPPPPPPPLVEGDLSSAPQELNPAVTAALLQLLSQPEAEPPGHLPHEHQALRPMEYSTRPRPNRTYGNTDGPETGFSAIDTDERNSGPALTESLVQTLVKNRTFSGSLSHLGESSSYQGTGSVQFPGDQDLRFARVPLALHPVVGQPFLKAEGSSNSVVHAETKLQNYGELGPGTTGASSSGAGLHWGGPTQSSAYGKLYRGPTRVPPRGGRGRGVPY
Chain of CDK12/Cyclin K (O75909 whole entry partner): as the sequence (O75909 whole entry partner) above

CDK14/Cyclin Y = CDK14/Cyclin Y (Homo sapiens, UniProt O94921); experiment: NanoBRET live-cell target engagement, CDK14-NanoLuc/Cyclin Y in HEK-293; format: binding; conditions: CDK14/Y, read-out: Inhibition at 10µM (%)
CDK2/Cyclin E1 = CDK2/Cyclin E1 (Homo sapiens, UniProt P24941); experiment: NanoBRET live-cell target engagement, CDK2-NanoLuc/Cyclin E1 in HEK-293; format: binding; conditions: CDK2/E1, read-out: Inhibition at 10µM (%)
CDK8/Cyclin C = CDK8/Cyclin C (Homo sapiens, UniProt P49336); experiment: NanoBRET live-cell target engagement, NanoLuc-CDK8/Cyclin C in HEK-293; format: binding; conditions: CDK8/C, read-out: Inhibition at 10µM (%)

Work on `COc1ccc(F)cc1-c1cc(NC(=O)C2CCCNC2)ncc1Cl` (stereo not drawn) [CDK inhibitor 2] yielded an IC50 (CDK15/Cyclin Y; average (± SEM where n=3)) of 540 ± 70 nM, an inhibition at 10 µM (CDK15/Cyclin Y; average) of 92.4% and an IC50 (CDK15/Cyclin Y; experiment 1) of 407 nM. The inhibition at 10 µM (CDK15/Cyclin Y; experiment 1) was 93.4%, the IC50 (CDK15/Cyclin Y; experiment 2) was 570 nM and the inhibition at 10 µM (CDK15/Cyclin Y; experiment 2) was 91.4%. For the same compound, the IC50 (CDK15/Cyclin Y; experiment 3) was 648 nM, the inhibition at 10 µM (CDK13/Cyclin K; average) was 41.2% and the inhibition at 10 µM (CDK13/Cyclin K; experiment 1) was 31.4%. It also gave an inhibition at 10 µM (CDK13/Cyclin K; experiment 2) of 51.1%, an inhibition at 10 µM (CDK19/Cyclin C; average) of 72.6% and an inhibition at 10 µM (CDK19/Cyclin C; experiment 1) of 75.1%. It also gave an inhibition at 10 µM (CDK19/Cyclin C; experiment 2) of 70.1%, an inhibition at 10 µM (CDK4/Cyclin D1; average) of 83.4% and an inhibition at 10 µM (CDK4/Cyclin D1; experiment 1) of 81.2%. The inhibition at 10 µM (CDK4/Cyclin D1; experiment 2) was 85.7%, the inhibition at 10 µM (CDK1/Cyclin E1; average) was 79.7% and the inhibition at 10 µM (CDK1/Cyclin E1; experiment 1) was 76.7%. The inhibition at 10 µM (CDK1/Cyclin E1; experiment 2) was 82.8%, the IC50 (CDK9/Cyclin K; average (± SEM where n=3)) was 3.5 ± 0.8 nM and the inhibition at 10 µM (CDK9/Cyclin K; average) was 98.4%. It also gave an IC50 (CDK9/Cyclin K; experiment 1) of 5 nM, an inhibition at 10 µM (CDK9/Cyclin K; experiment 1) of 99.1% and an IC50 (CDK9/Cyclin K; experiment 2) of 2.3 nM. For the same compound, the inhibition at 10 µM (CDK9/Cyclin K; experiment 2) was 97.8%, the IC50 (CDK9/Cyclin K; experiment 3) was 3 nM and the IC50 (CDK17/Cyclin Y; average (± SEM where n=3)) was 90 ± 20 nM. It also gave an inhibition at 10 µM (CDK17/Cyclin Y; average) of 91.6%, an IC50 (CDK17/Cyclin Y; experiment 1) of 57 nM and an inhibition at 10 µM (CDK17/Cyclin Y; experiment 1) of 90.5%. It also gave an IC50 (CDK17/Cyclin Y; experiment 2) of 110 nM, an inhibition at 10 µM (CDK17/Cyclin Y; experiment 2) of 92.6% and an IC50 (CDK17/Cyclin Y; experiment 3) of 99 nM. It also gave an IC50 (CDK11B/Cyclin L2; average (± SEM where n=3)) of 17 ± 5 nM, an inhibition at 10 µM (CDK11B/Cyclin L2; average) of 95.6% and an IC50 (CDK11B/Cyclin L2; experiment 1) of 9 nM. For the same compound, the inhibition at 10 µM (CDK11B/Cyclin L2; experiment 1) was 96.5%, the IC50 (CDK11B/Cyclin L2; experiment 2) was 18 nM and the inhibition at 10 µM (CDK11B/Cyclin L2; experiment 2) was 94.6%. The IC50 (CDK11B/Cyclin L2; experiment 3) was 25 nM, the IC50 (CDK16/Cyclin Y; average (± SEM where n=3)) was 100 ± 30 nM and the IC50 (CDK16/Cyclin Y; experiment 1) was 51 nM. The inhibition at 10 µM (CDK16/Cyclin Y; experiment 1) was 89.7%, the IC50 (CDK16/Cyclin Y; experiment 2) was 140 nM and the inhibition at 10 µM (CDK16/Cyclin Y; experiment 2) was 90.1%. For the same compound, the IC50 (CDK16/Cyclin Y; experiment 3) was 117 nM, the IC50 (CDK11A/Cyclin L2; average (± SEM where n=3)) was 20 ± 10 nM and the inhibition at 10 µM (CDK11A/Cyclin L2; average) was 95.4%. For the same compound, the IC50 (CDK11A/Cyclin L2; experiment 1) was 8.3 nM, the inhibition at 10 µM (CDK11A/Cyclin L2; experiment 1) was 94.8% and the IC50 (CDK11A/Cyclin L2; experiment 2) was 17 nM. It also gave an inhibition at 10 µM (CDK11A/Cyclin L2; experiment 2) of 95.9%, an IC50 (CDK11A/Cyclin L2; experiment 3) of 47 nM and an inhibition at 10 µM (CDK5/CDK5R1; average) of 40%. It also gave an inhibition at 10 µM (CDK5/CDK5R1; experiment 1) of 37.7%, an inhibition at 10 µM (CDK5/CDK5R1; experiment 2) of 42.4% and an IC50 (CDK18/Cyclin Y; CDK18/Y, average (± SEM where n=3)) of 140 ± 30 nM. The IC50 (CDK18/Cyclin Y; CDK18/Y, experiment 1) was 104 nM, the inhibition at 10 µM (CDK18/Cyclin Y; CDK18/Y, experiment 1, read-out: Inhibition at 10µM (%)) was 93.5% and the IC50 (CDK18/Cyclin Y; CDK18/Y, experiment 2) was 210 nM. For the same compound, the inhibition at 10 µM (CDK18/Cyclin Y; CDK18/Y, experiment 2, read-out: Inhibition at 10µM (%)) was 102%, the IC50 (CDK18/Cyclin Y; CDK18/Y, experiment 3) was 112 nM and the inhibition at 10 µM (CDK18/Cyclin Y; read-out: Inhibition at 10µM (%), CDK18/Y, average) was 97.8%. The IC50 (CDK10/Cyclin L2; average (± SEM where n=3)) was 500 ± 200 nM, the IC50 (CDK10/Cyclin L2; experiment 1) was 340 nM and the IC50 (CDK10/Cyclin L2; experiment 2) was 230 nM. It also gave an IC50 (CDK10/Cyclin L2; experiment 3) of 972 nM, an inhibition at 10 µM (CDK10/Cyclin L2; average) of 83.1% and an inhibition at 10 µM (CDK10/Cyclin L2; experiment 1) of 83.7%. The inhibition at 10 µM (CDK10/Cyclin L2; experiment 2) was 82.5%, the inhibition at 10 µM (CDK6/Cyclin D1; average) was 77.1% and the inhibition at 10 µM (CDK6/Cyclin D1; experiment 1) was 76.2%. For the same compound, the inhibition at 10 µM (CDK6/Cyclin D1; experiment 2) was 78%, the inhibition at 10 µM (CDK20/Cyclin H; experiment 1) was 18.7% and the inhibition at 10 µM (CDK20/Cyclin H; experiment 2) was 27.3%. For the same compound, the inhibition at 10 µM (CDK12/Cyclin K; average) was 49.3%, the inhibition at 10 µM (CDK12/Cyclin K; experiment 1) was 41% and the inhibition at 10 µM (CDK12/Cyclin K; experiment 2) was 57.6%. The inhibition at 10 µM (CDK14/Cyclin Y; average) was 86.5%, the inhibition at 10 µM (CDK14/Cyclin Y; experiment 1) was 89.6% and the inhibition at 10 µM (CDK14/Cyclin Y; experiment 2) was 83.5%. It also gave an inhibition at 10 µM (CDK2/Cyclin E1; average) of 65.6%, an inhibition at 10 µM (CDK2/Cyclin E1; experiment 1) of 61.9% and an inhibition at 10 µM (CDK2/Cyclin E1; experiment 2) of 69.3%. It also gave an inhibition at 10 µM (CDK8/Cyclin C; average) of 58%, an inhibition at 10 µM (CDK8/Cyclin C; experiment 1) of 65.9% and an inhibition at 10 µM (CDK8/Cyclin C; experiment 2) of 50%.
